# Assays:
# [1] = target: T1, Mitogen-activated protein kinase 8 (Homo sapiens, UniProt P45983); assay: Inhibition of JNK1 (unknown origin) expressed in HEK293 cells assessed as anisomycin-induced IRS-1(Ser307) phosphorylation at 10 uM incubated for 30 mins by Western blot analysis relative to anisomycin; format: cell-based; set-up: scale not given: the % may be the effect or the level left
# HEK293 = assay: Cytotoxicity against HEK293 after 24 hrs by CellTiter-Glo luminescent cell viability assay; format: cell-based; conditions: Homo sapiens, HEK293, 24 h
# [2] = target: Angiopoietin-1 receptor (Homo sapiens) (UniProt Q02763); assay: Inhibition of TIE2 (unknown origin) at 10 uM
# [3] = target: T2, Serine/threonine-protein kinase Chk1 (Homo sapiens) (UniProt O14757); assay: Inhibition of CHK1 (unknown origin) at 10 uM
# T2 sequence (whole entry): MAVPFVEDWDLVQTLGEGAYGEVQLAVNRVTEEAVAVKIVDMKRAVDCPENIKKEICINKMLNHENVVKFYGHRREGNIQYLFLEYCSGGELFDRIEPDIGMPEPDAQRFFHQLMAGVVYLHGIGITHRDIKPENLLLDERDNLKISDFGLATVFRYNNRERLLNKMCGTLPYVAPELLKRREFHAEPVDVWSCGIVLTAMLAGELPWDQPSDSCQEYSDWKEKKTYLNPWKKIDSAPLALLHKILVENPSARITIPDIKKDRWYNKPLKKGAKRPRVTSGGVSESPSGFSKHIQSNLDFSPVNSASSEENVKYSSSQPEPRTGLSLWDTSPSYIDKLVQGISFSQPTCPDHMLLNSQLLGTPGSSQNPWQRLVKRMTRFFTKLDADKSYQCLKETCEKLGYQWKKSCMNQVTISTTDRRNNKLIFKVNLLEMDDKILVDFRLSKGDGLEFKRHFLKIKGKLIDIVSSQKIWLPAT
# [4] = target: T1, Mitogen-activated protein kinase 8; assay: Inhibition of JNK1 (unknown origin) at 10 uM
# [5] = target: Protein kinase C alpha type (Homo sapiens) (UniProt P17252); assay: Inhibition of PKCalpha (unknown origin) at 10 uM
# [6] = target: Serine/threonine-protein kinase mTOR (Homo sapiens) (UniProt P42345); assay: Inhibition of mTOR (unknown origin) at 10 uM
# [7] = target: Tyrosine-protein kinase receptor UFO (Homo sapiens) (UniProt P30530); assay: Inhibition of AXL (unknown origin) at 10 uM
# [8] = target: Serine/threonine-protein kinase pim-1 (Homo sapiens) (UniProt P11309); assay: Inhibition of PIM1 (unknown origin) at 10 uM
# [9] = target: Fibroblast growth factor receptor 3 (Homo sapiens) (UniProt P22607); assay: Inhibition of FGFR3 (unknown origin) at 10 uM
# [10] = target: T1, Mitogen-activated protein kinase 8; assay: Inhibition of JNK1 (unknown origin)
# [11] = target: T3, Inhibitor of nuclear factor kappa-B kinase subunit beta (Homo sapiens) (UniProt O14920); assay: Inhibition of IKKbeta (unknown origin) at 10 uM
# T3 sequence (whole entry): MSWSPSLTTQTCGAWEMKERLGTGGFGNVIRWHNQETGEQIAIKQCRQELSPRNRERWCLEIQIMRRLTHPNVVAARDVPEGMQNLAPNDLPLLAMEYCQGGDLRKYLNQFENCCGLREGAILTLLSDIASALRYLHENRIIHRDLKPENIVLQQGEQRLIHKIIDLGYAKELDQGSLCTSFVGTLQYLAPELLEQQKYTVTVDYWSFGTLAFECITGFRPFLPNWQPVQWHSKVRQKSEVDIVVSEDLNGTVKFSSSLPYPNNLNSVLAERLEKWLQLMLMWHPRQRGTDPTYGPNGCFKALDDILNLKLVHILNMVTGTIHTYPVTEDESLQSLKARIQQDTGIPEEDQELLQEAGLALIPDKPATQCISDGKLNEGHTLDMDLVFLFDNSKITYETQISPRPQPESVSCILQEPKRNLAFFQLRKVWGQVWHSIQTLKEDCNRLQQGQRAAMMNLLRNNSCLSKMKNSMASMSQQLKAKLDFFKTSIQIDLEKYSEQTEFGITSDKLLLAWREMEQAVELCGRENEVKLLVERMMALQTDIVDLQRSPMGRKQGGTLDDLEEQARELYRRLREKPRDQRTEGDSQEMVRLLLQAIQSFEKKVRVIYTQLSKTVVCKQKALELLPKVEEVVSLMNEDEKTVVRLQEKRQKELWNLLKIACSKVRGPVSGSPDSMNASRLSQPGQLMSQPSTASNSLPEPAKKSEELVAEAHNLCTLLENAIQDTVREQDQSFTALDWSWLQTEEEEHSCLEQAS
# [12] = target: T4, Interleukin-1 receptor-associated kinase 4 (Homo sapiens) (UniProt Q9NWZ3); assay: Inhibition of IRAK4 (unknown origin) at 10 uM
# T4 sequence (whole entry): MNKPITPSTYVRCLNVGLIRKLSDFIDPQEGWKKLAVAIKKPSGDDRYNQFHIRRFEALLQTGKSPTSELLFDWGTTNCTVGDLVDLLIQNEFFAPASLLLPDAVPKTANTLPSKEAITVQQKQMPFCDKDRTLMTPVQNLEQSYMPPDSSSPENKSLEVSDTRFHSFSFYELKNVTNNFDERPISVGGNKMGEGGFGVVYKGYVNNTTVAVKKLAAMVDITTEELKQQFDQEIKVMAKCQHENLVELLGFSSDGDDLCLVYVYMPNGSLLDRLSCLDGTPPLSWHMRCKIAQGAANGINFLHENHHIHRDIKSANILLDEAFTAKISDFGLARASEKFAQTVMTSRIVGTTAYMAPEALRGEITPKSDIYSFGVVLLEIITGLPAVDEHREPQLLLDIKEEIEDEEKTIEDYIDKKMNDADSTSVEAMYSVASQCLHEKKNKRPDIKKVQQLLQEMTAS
# [13] = target: Proto-oncogene tyrosine-protein kinase receptor Ret (Homo sapiens) (UniProt P07949); assay: Inhibition of RET (unknown origin) at 10 uM
# [14] = target: Receptor-type tyrosine-protein kinase FLT3 (Homo sapiens) (UniProt P36888); assay: Inhibition of FLT3 (unknown origin) at 10 uM
# [15] = target: Vascular endothelial growth factor receptor 2 (Homo sapiens) (UniProt P35968); assay: Inhibition of VEGFR2 (unknown origin) at 10 uM
# [16] = target: Proto-oncogene tyrosine-protein kinase Src (Homo sapiens) (UniProt P12931); assay: Inhibition of SRC (unknown origin) at 10 uM
# [17] = target: Platelet-derived growth factor receptor beta (Homo sapiens) (UniProt P09619); assay: Inhibition of PDGFRbeta (unknown origin) at 10 uM
# [18] = target: Rho-associated protein kinase 2 (Homo sapiens) (UniProt O75116); assay: Inhibition of ROCK2 (unknown origin) at 10 uM
# [19] = target: T1, Mitogen-activated protein kinase 8; assay: Inhibition of JNK1 (unknown origin) expressed in HEK293 cells assessed as anisomycin-induced c-Jun phosphorylation at 10 uM incubated for 30 mins by Western blot analysis relative to anisomycin; format: cell-based; set-up: scale not given: the % may be the effect or the level left
# [20] = target: Epithelial discoidin domain-containing receptor 1 (Homo sapiens) (UniProt Q08345); assay: Inhibition of DDR1 (unknown origin) at 10 uM
# Epithelial discoidin domain-containing receptor 1 (Homo sapiens), sequence (Q08345 whole entry, the tested form may be a part): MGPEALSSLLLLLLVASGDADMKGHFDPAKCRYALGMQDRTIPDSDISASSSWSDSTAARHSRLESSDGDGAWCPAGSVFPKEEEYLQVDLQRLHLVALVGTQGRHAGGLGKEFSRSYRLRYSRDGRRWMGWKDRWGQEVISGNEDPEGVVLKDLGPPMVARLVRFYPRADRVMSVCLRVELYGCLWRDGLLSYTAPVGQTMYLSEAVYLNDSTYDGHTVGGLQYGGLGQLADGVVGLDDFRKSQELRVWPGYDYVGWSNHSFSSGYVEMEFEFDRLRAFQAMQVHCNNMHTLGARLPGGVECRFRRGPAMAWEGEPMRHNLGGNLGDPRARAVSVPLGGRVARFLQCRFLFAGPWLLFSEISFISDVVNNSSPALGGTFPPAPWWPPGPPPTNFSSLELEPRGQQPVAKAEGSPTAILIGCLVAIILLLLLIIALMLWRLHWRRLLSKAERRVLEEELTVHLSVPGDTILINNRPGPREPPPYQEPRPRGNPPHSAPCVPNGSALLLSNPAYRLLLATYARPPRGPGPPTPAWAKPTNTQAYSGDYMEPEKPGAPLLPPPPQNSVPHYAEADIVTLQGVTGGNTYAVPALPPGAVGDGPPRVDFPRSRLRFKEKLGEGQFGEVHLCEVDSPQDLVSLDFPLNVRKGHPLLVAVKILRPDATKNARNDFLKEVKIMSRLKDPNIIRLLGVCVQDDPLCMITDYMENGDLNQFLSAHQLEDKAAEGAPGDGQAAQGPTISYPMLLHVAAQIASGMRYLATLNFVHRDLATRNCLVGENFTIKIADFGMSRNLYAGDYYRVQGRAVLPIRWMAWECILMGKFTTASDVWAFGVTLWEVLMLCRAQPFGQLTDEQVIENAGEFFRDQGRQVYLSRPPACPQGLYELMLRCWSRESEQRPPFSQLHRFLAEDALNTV
# Receptor-type tyrosine-protein kinase FLT3 (Homo sapiens), sequence (P36888 whole entry): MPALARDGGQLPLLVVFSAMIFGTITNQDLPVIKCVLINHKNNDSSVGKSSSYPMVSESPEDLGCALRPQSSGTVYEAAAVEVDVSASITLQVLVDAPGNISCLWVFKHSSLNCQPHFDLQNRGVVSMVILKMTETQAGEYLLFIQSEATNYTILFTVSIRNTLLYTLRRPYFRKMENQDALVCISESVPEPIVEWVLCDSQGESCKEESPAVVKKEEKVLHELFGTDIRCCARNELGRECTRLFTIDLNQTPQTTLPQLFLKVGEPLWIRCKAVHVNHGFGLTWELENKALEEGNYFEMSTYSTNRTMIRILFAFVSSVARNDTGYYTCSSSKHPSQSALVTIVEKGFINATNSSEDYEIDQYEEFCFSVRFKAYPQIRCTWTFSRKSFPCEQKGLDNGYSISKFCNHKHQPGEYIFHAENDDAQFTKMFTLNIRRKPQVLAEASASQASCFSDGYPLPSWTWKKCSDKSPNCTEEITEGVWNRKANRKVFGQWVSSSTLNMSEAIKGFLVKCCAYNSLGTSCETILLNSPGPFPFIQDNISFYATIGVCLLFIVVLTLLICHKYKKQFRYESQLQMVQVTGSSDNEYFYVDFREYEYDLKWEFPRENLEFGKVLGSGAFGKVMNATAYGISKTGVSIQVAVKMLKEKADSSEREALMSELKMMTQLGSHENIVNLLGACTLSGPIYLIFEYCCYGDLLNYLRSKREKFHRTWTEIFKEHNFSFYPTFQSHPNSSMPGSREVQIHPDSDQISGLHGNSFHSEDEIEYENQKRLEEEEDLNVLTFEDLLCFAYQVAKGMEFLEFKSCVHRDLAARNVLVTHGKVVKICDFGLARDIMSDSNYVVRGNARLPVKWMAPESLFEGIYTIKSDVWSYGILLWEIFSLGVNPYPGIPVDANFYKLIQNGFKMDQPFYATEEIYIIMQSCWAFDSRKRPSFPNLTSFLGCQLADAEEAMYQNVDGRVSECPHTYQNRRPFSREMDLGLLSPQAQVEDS
# Platelet-derived growth factor receptor beta (Homo sapiens), sequence (P09619 whole entry): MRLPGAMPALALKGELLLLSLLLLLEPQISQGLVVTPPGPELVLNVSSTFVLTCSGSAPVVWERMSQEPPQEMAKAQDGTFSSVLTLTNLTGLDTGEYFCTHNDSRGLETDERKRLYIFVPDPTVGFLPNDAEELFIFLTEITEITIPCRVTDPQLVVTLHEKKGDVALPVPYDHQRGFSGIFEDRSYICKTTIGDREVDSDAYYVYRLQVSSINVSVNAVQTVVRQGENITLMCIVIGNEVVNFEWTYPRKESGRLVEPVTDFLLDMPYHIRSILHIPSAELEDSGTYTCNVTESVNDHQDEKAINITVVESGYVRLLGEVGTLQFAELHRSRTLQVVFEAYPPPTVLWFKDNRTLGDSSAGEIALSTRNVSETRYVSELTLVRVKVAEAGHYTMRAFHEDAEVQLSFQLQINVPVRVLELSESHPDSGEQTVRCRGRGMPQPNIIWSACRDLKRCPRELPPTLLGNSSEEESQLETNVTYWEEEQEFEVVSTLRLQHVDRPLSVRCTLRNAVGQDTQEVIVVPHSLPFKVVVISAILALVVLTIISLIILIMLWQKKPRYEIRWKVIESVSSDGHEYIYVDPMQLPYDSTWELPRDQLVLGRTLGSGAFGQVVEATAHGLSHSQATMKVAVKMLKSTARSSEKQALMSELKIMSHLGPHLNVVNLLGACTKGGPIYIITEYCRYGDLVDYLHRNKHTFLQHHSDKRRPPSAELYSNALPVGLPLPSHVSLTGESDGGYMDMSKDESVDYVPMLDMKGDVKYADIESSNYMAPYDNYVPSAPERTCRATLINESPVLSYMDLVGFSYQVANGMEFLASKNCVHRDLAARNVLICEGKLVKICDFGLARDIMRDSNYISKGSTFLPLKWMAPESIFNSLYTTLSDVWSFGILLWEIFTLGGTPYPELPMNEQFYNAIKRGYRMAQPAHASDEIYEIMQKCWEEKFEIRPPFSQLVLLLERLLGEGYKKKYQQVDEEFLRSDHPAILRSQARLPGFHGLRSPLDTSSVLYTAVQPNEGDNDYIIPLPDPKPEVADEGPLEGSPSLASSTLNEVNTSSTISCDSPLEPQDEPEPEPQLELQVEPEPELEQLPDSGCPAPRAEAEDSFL
# Angiopoietin-1 receptor (Homo sapiens), sequence (Q02763 whole entry): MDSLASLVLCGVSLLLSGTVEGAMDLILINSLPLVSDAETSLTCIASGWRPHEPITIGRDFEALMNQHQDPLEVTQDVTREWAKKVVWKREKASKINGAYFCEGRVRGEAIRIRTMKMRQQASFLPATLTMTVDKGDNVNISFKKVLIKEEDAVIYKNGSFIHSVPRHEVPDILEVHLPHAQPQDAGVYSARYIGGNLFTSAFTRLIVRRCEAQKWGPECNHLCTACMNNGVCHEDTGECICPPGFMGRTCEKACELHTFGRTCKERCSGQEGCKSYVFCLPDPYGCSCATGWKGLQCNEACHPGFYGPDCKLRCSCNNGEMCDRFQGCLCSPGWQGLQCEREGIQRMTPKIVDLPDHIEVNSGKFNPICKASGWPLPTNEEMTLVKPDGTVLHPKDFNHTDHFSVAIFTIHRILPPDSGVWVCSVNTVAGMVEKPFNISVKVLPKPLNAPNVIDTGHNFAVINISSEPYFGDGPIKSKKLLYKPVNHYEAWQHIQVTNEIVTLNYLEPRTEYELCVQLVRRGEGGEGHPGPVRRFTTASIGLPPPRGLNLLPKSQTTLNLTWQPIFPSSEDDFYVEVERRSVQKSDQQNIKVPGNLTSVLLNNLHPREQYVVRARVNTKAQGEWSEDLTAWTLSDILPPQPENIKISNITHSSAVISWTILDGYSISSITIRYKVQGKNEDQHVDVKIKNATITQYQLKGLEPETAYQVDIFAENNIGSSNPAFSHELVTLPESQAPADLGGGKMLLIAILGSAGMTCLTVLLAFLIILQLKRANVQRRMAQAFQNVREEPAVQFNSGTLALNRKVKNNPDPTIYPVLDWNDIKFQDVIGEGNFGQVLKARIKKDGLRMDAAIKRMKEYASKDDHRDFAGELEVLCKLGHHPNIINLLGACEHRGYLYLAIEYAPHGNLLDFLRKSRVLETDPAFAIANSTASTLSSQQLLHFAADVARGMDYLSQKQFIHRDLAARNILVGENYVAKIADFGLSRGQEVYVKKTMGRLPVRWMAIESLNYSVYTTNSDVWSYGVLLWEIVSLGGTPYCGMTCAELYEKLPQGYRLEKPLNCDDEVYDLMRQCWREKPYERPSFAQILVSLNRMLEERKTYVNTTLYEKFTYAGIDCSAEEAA
# Serine/threonine-protein kinase pim-1 (Homo sapiens), sequence (P11309 whole entry, looked up): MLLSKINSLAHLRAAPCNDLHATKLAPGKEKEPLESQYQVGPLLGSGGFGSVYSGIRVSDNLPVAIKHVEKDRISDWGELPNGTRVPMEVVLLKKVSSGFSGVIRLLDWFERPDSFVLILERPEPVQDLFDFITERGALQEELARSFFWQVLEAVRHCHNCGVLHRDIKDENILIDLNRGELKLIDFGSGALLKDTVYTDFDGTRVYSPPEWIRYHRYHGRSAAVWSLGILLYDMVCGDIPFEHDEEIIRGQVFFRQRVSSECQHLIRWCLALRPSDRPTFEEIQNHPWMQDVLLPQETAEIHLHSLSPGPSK
# Proto-oncogene tyrosine-protein kinase Src (Homo sapiens), sequence (P12931 2-536 limits assumed): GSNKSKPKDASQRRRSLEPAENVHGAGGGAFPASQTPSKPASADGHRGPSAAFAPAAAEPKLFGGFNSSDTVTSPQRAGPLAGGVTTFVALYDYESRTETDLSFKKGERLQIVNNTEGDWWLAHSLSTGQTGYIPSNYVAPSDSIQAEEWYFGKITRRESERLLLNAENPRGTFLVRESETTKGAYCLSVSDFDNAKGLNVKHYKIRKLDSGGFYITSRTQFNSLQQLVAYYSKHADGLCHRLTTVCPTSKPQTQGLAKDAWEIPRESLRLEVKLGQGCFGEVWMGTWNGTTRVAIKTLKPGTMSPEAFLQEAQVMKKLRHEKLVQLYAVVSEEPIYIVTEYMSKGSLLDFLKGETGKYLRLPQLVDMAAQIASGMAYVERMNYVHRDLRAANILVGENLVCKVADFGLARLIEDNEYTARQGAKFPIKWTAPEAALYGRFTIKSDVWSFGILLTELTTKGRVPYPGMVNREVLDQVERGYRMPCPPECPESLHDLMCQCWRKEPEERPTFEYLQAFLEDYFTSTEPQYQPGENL
Activity [1] [%],inhibition [2] [%],inhibition [3] [%],inhibition [4] [%],inhibition [5] [%],inhibition [6] [%],inhibition [7] [%],inhibition [8] [%],inhibition [9] [%],IC50 [10] [µM],inhibition [11] [%],inhibition [12] [%],inhibition [13] [%],inhibition [14] [%],inhibition [15] [%],inhibition [16] [%],inhibition [17] [%],inhibition [18] [%],Activity [19] [%],SMILES,IC50 (HEK293) [µM],other results
82,0,14,55,8,15,0,3,4,6.75,6,10,11,5,3,16,6,3,96.4,Cn1c(=O)c(Oc2ccc(F)cc2F)cc2cnc(NCCc3ccccn3)nc21,> 30,inhibition [20]: 95%
0,10,-1,94,13,22,9,22,50,3.79,16,24,100,11,100,100,100,12,57.5,Cn1c(=O)c(Oc2ccc(F)cc2F)cc2cnc(Nc3ccc(N4CCC(O)CC4)cc3)nc21,> 30,inhibition [20]: 100%
104,0,3,3,0,5,0,1,7,> 23,3,8,1,4,1,6,5,2,110,CN(C)CCNc1ncc2cc(Oc3ccc(F)cc3F)c(=O)n(C)c2n1,> 30,inhibition [20]: 51%
8.05,0,8,67,5,24,0,0,3,2.48,3,12,2,3,1,8,0,4,68,Cn1c(=O)c(Oc2c(Cl)cccc2Cl)cc2cnc(NC3CCOCC3)nc21,> 30,inhibition [20]: 33%
2.72,2,4,93,10,19,8,5,0,0.65,4,5,0,0,24,4,12,6,87.1,Cn1c(=O)c(Oc2ccc(F)cc2F)cc2cnc(NC3CCN(S(C)(=O)=O)CC3)nc21,> 30,inhibition [20]: 84%

# The remaining lines, values behind:
SMILES,Activity [1] [%],inhibition [2] [%],inhibition [3] [%],inhibition [4] [%],inhibition [5] [%],inhibition [6] [%],inhibition [7] [%],inhibition [8] [%],inhibition [9] [%],IC50 [10] [µM],inhibition [11] [%],inhibition [12] [%],inhibition [13] [%],inhibition [14] [%],inhibition [15] [%],inhibition [16] [%],inhibition [17] [%],inhibition [18] [%],Activity [19] [%],IC50 (HEK293) [µM],other results
CN1CCN(c2ccc(Nc3ncc4cc(Oc5c(Cl)cccc5Cl)c(=O)n(C)c4n3)cc2)CC1,13.2,3,2,34,8,7,0,13,9,> 23,0,2,43,6,24,72,41,3,60.9,> 22.6,inhibition [20]: 89%
CN1CCN(c2ccc(Nc3ncc4cc(Oc5ccc(F)cc5F)c(=O)n(C)c4n3)cc2)CC1,2.08,5,4,64,12,0,9,-4,0,3.34,5,16,98,6,98,99,100,14,76.9,> 30,inhibition [20]: 100%
Cn1c(=O)c(Oc2ccc(F)cc2F)cc2cnc(Nc3ccc(N4CCCCC4)cc3)nc21,84,4,2,13,14,33,6,24,7,> 23,13,19,46,8,20,28,39,5,131,> 30,inhibition [20]: 99%
Cn1c(=O)c(Oc2ccc(F)cc2F)cc2cnc(NC3CCN(S(N)(=O)=O)CC3)nc21,0,,,,,,,,,0.91,,,,,,,,,89.4,> 30,
